Read-outs that look alike come from different tables or passages of the source.
What was measured:
Assay type in all cases: biochemical
FGFR3 (K650E) = biological target: T1, FGFR3 (K650E) (Homo sapiens, UniProt P22607, K650E); experiment: Recombinant GST-FGFR-3-K650E tyrosine kinase assay (33P into poly(Glu,Tyr)); conditions: 10 μM
T1 construct: amino acids 411-806 of the cytoplasmic domain of human FGFR-3, N-terminally fused to GST; made in house; host or cells: Sf9 insect cells (baculovirus)

KDR = biological target: T2, KDR (Homo sapiens, UniProt P35968); experiment: Inhibitory activity against KDR (VEGF-R2), in vitro data of Examples 170 and 207; conditions: 10 μM, read-out: KDR inhibition at 10 μM
T2 construct: expressed in transfected cells; host or cells: CHO cells
T2 sequence (P35968 20-1356): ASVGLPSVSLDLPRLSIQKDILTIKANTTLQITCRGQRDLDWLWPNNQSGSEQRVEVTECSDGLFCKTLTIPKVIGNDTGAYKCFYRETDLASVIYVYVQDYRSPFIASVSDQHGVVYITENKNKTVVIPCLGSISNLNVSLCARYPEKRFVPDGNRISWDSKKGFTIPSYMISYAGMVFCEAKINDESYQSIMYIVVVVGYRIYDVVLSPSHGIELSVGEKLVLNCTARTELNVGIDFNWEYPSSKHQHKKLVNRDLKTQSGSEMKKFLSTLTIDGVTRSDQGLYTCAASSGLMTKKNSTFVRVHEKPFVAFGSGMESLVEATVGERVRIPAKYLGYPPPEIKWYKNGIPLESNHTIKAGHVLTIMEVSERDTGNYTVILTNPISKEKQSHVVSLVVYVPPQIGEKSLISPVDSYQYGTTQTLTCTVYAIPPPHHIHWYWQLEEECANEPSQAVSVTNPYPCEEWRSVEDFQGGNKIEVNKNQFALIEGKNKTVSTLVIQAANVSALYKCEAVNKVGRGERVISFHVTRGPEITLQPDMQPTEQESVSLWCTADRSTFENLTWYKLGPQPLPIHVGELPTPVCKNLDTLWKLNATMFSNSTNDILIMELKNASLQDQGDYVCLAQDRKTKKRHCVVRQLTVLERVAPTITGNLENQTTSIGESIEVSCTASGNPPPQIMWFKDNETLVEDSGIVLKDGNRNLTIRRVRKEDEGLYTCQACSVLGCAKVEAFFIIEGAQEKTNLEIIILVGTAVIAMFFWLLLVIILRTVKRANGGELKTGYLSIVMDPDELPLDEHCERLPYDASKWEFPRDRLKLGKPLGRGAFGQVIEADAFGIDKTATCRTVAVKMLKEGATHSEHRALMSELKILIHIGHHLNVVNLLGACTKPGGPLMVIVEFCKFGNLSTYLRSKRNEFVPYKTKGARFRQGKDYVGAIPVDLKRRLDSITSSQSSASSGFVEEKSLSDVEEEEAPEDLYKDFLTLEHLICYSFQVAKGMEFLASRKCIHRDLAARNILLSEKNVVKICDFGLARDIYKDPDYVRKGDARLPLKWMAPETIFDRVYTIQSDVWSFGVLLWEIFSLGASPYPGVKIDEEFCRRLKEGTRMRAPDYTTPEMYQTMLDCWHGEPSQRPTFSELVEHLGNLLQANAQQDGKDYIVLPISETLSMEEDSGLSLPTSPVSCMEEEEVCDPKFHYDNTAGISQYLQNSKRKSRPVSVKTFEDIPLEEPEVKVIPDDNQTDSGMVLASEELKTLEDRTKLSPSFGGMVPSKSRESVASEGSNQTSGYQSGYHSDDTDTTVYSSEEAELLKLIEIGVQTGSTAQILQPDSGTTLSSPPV
Summary of the method: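 KDR tyrosine phosphorylation detected by luminescence after overnight 4° C capture of 20 μg lysate protein with PY20:AP antibody. Lysates came from cells given compound for 2 h at 37° C, then final 20 ng/ml VEGF for 5 min; compound-free medium as control.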

c-Abl = c-Abl (Homo sapiens, UniProt P00519); experiment: Inhibitory activity against c-Abl (Example 207); conditions: Examples 171 to 206
c-Abl, sequence (P00519 whole entry): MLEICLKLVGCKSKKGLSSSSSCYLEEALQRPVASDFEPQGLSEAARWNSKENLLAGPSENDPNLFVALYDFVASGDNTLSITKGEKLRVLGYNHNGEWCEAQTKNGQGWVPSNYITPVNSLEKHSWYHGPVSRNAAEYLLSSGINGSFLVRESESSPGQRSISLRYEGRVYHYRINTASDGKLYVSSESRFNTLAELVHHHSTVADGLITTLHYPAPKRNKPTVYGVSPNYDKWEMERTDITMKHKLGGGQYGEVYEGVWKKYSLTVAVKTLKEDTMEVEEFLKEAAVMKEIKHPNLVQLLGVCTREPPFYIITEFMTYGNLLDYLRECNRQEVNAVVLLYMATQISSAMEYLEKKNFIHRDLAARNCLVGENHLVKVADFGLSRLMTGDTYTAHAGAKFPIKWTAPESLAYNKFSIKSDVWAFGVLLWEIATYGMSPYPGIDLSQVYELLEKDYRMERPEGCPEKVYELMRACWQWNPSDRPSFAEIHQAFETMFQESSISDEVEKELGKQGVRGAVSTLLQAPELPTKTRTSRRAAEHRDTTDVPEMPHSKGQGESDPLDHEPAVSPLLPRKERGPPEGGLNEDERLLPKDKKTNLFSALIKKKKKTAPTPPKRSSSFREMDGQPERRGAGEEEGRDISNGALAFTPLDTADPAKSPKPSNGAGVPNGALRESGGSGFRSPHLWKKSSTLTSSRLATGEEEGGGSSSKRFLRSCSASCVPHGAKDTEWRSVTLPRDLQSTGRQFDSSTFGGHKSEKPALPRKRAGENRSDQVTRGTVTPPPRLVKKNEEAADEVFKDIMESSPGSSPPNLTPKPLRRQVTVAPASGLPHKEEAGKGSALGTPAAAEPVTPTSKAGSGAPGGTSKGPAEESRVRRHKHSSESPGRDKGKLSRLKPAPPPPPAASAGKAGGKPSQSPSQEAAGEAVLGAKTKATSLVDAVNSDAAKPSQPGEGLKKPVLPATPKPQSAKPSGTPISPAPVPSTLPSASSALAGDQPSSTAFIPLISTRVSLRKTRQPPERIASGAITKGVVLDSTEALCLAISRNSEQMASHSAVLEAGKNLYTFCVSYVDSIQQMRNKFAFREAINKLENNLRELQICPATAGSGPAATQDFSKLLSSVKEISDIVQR

Tek = biological target: T3, Tek (Homo sapiens, UniProt Q02763); experiment: Recombinant GST-Tek (Tie-2) tyrosine kinase assay (33P into poly(Glu,Tyr)); conditions: Examples 1 to 169
T3 construct: amino acids 773-1124 of the cytoplasmic kinase domain of human Tek, N-terminally fused to GST; made in house; host or cells: Sf9 insect cells (baculovirus)
T3 sequence (Q02763 773-1124): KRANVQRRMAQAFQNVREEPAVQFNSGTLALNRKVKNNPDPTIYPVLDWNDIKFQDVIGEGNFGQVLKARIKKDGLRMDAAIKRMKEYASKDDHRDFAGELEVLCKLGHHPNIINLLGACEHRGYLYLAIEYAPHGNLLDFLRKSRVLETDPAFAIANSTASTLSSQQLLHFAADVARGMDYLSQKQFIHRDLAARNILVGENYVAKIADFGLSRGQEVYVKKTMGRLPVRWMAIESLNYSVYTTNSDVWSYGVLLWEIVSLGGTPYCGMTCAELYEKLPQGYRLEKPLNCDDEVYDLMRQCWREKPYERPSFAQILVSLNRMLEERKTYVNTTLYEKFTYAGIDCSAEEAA
Summary of the method: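 GST-fused human Tek kinase domain (aa 773-1124), baculovirus-expressed, 150 ng per reaction; 10 μg/mL poly(Glu,Tyr) 4:1, 4.0 μM [γ-33P]ATP, 3 mM MnCl2/3 mM MgCl2, pH 7.5, 30 min at ambient temperature. 33P uptake read on PVDF filters; IC50 by linear regression from four concentrations in duplicate.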

[1] = Examples 171 to 206, read-out: FGFR3 inhibition at 10 μM
[2] = Examples 1 to 169, read-out: FGFR3 (K650E) inhibition at 10 μM

T1 sequence (P22607 411-806 K650E): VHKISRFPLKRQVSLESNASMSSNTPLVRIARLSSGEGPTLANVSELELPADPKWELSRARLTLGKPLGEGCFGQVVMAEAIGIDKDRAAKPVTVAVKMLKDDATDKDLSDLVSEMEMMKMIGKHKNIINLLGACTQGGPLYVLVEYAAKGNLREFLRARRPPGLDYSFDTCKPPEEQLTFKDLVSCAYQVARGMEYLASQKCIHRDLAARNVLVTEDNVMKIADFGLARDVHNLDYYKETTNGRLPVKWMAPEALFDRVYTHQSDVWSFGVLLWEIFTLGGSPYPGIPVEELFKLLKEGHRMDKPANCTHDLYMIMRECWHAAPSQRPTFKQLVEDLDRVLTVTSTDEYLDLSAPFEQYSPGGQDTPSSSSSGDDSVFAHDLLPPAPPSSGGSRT

inhibition at 10 µM (FGFR3 (K650E); [1])	inhibition at 10 µM (KDR; Examples 171 to 206)	inhibition at 10 µM (c-Abl)	inhibition at 10 µM (FGFR3 (K650E); [2])	inhibition at 10 µM (KDR; Examples 1 to 169)	inhibition at 10 µM (Tek)	SMILES
56 to 98%	87 to 100%	79 to 100%				CCN(CC)CCOc1ccc(Nc2cc(N(C)C(=O)Nc3cc(NC(=O)c4cccc(C(F)(F)F)c4)ccc3C)ncn2)cc1 [Example 183, N-[3-(3-{6-[4-(2-Diethylamino-ethoxy)-phenylamino]-pyrimidin-4-yl}-3-methyl-ureido)-4-methyl-Phenyl]-3-trifluoromethyl-benzamide]
56 to 98%	87 to 100%	79 to 100%				Cc1ccc(NC(=O)c2cccc(C(F)(F)F)c2)cc1NC(=O)Nc1cc(Nc2cccc(N3CCN(C)CC3)c2)ncn1 [Example 175, N-[4-Methyl-3-(3-{6-[3-(4-methyl-piperazin-1-yl)-phenylamino]-pyrimidin-4-yl}-ureido)-phenyl]-3-trifluoromethyl-benzamide]
56 to 98%	87 to 100%	79 to 100%				Cc1ccc(NC(=O)c2cccc(C(F)(F)F)c2)cc1NC(=O)N(C)c1cc(Nc2ccc(OCCN3CCN(C)CC3)cc2)ncn1 [Example 184, N-{4-Methyl-3-[3-methyl-3-(6-{4-[2-(4-methyl-piperazin-1-yl)-ethoxy]-phenylamino}-pyrimidin-4-yl)-ureido]-phenyl}-3-trifluoromethyl-benzamide]
56 to 98%	87 to 100%	79 to 100%				Cc1ccc(NC(=O)c2cccc(C(F)(F)F)c2)cc1NC(=O)N(CCc1ccccn1)c1cc(Nc2ccccc2)ncn1 [Example 190, N-{4-Methyl-3-[3-(6-phenylamino-pyrimidin-4-yl)-3-(2-pyridin-2-yl-ethyl)-ureido]-phenyl}-3-trifluoromethyl-benzamide]
56 to 98%	87 to 100%	79 to 100%				COc1cc(NC(=O)c2ccc(CN3CCN(C)CC3)c(C(F)(F)F)c2)cc(NC(=O)N(C)c2cc(Nc3ccccc3)ncn2)c1 [Example 200, N-{3-Methoxy-5-[3-methyl-3-(6-phenylamino-pyrimidin-4-yl)-ureido]-phenyl}-4-(4-methyl-piperazin-1-ylmethyl)-3-trifluoromethyl-benzamide]
56 to 98%	87 to 100%	79 to 100%				COc1cc(NC(=O)c2ccc(CN3CCN(C)CC3)c(C(F)(F)F)c2)cc(NC(=O)N(C)c2cc(N)ncn2)c1 [Example 199, N-{3-[3-(6-Amino-pyrimidin-4-yl)-3-methyl-ureido]-5-methoxy-phenyl}-4-(4-methyl-piperazin-1-ylmethyl)-3-trifluoromethyl-benzamide]
56 to 98%	87 to 100%	79 to 100%				Cc1ccc(NC(=O)c2cccc(C(F)(F)F)c2)cc1NC(=O)N(C)c1cc(Nc2cccc(OCCN3CCN(C)CC3)c2)ncn1 [Example 185, N-{4-Methyl-3-[3-methyl-3-(6-{3-[2-(4-methyl-piperazin-1-yl)-ethoxy]-phenylamino}-pyrimidin-4-yl)-ureido]-phenyl}-3-trifluoromethyl-benzamide]
56 to 98%	87 to 100%	79 to 100%				Cc1ccc(NC(=O)c2cccc(C(F)(F)F)c2)cc1NC(=O)N(C)c1cc(Nc2cccc(N3CCN(C)CC3)c2)ncn1 [Example 188, N-[4-Methyl-3-(3-methyl-3-{6-[3-(4-methyl-piperazin-1-yl)-phenylamino]-pyrimidin-4-yl}-ureido)-phenyl]-3-trifluoromethyl-benzamide]
56 to 98%	87 to 100%	79 to 100%				CC(=O)Nc1cc(N(C)C(=O)Nc2cc(NC(=O)c3ccc(CN4CCN(C)CC4)c(C(F)(F)F)c3)ccc2C)ncn1 [Example 202, N-[3-[3-(6-Acetylaminopyrimidin-4-yl)-3-methylureido]-4-methylphenyL]-4-(4-methylpiperazin-1-ylmethyl)-3-trifluoromethylbenzamide]
56 to 98%	87 to 100%	79 to 100%				COc1cc(NC(=O)c2ccc(C)c(C(F)(F)F)c2)cc(NC(=O)N(C)c2cc(Nc3ccc(N4CCN(C)CC4)cc3)ncn2)c1 [Example 201, N-[3-Methoxy-5-(3-methyl-3-{6-[4-(4-methyl-piperazin-1-yl)-phenyl-amino]-pyrimidin-4-yl}-ureido)-phenyl]-4-methyl-3-trifluoromethyl-benzamide]
56 to 98%	87 to 100%	79 to 100%				COC(=O)Nc1cc(N(C)C(=O)Nc2cc(C(=O)Nc3ccc(CN4CCN(C)CC4)c(C(F)(F)F)c3)ccc2C)ncn1 [Example 204, [6-(1-Methyl-3-{2-methyl-5-[4-(4-methyl-piperazin-1-ylmethyl)-3-trifluoromethyl-phenylcarbamoyl]-phenyl}-ureido)-pyrimidin-4-yl]-carbamic acid methyl ester]
56 to 98%	87 to 100%	79 to 100%				CC(=O)Nc1cc(N(C)C(=O)Nc2cc(C(=O)Nc3ccc(CN4CCN(C)CC4)c(C(F)(F)F)c3)ccc2C)ncn1 [Example 205, 3-[3-(6-Acetylamino-pyrimidin-4-yl)-3-methyl-ureido]-4-methyl-N-[4-(4-methyl-piperazin-1-ylmethyl)-3-trifluoromethyl-phenyl]-benzamide]
56 to 98%	87 to 100%	79 to 100%				Cc1ccc(NC(=O)c2cccc(C(F)(F)F)c2)cc1NC(=O)Nc1cc(Nc2ccccc2)ncn1 [Example 173, N-{4-Methyl-3-[3-(6-phenylamino-pyrimidin-4-yl)-ureido]-phenyl}-3-trifluoromethyl-benzamide]
56 to 98%	87 to 100%	79 to 100%				COc1ccc(N)cc1NC(=O)N(C)c1cc(Nc2ccc(N3CCN(C)CC3)cc2)ncn1 [Example 196, 3-(5-Amino-2-methoxy-phenyl)-1-methyl-1-{6-[4-(4-methyl-piperazin-1-yl)-phenylamino]-pyrimidin-4-yl}-urea]
56 to 98%	87 to 100%	79 to 100%				Cc1ccc(NC(=O)c2cccc(C(F)(F)F)c2)cc1NC(=O)Nc1cc(Nc2ccc(OCCN3CCOCC3)cc2)ncn1 [Example 179, N-[4-Methyl-3-(3-{6-[4-(2-morpholin-4-yl-ethoxy)-phenylamino]-pyrimidin-4-yl}-ureido)-phenyl]-3-trifluoromethyl-benzamide]
56 to 98%	87 to 100%	79 to 100%				Cc1ccc(NC(=O)c2cccc(C(F)(F)F)c2)cc1NC(=O)N(Cc1cccs1)c1cc(Nc2ccc(N3CCN(C)CC3)cc2)ncn1 [Example 193, N-[4-Methyl-3-(3-{6-[4-(4-methyl-piperazin-1-yl)-phenylamino]-pyrimid-in-4-yl}-3-thiophen-2-ylmethyl-ureido)-phenyl]-3-trifluoromethyl-benzamide]
			27 to 100%	67 to 100%	12 to 100%	CN(C(=O)Nc1c(Cl)cccc1Cl)c1cc(Nc2cccc(Cl)c2)ncn1 [Example 124, 1-[6-(3-Chloro-phenylamino)-pyrimidin-4-yl]-3-(2,6-dichloro-phenyl)-1-methyl-urea]
			27 to 100%	67 to 100%	12 to 100%	Cc1cc(C)cc(NC(=O)Nc2cc(Nc3cccc(N4CCN(C)CC4)c3)ncn2)c1 [Example 23, 1-(3,5-Dimethyl-Phenyl)-3-{6-[3-(4-methyl-piperazin-1-yl)-phenyl-amino]-pyrimidin-4-yl}-urea]
			27 to 100%	67 to 100%	12 to 100%	O=C(Nc1cc(N[C@H]2CC[C@H](O)CC2)ncn1)Nc1c(Cl)cccc1Cl [Example 92, 1-(2,6-Dichloro-phenyl)-3-[6-((trans)-4-hydroxy-cyclohexylamino)-pyrimidin-4-yl]-urea]
			27 to 100%	67 to 100%	12 to 100%	CCN(CC)CCCOc1ccc(Nc2cc(NC(=O)Nc3ccccc3Br)ncn2)cc1 [Example 104, 1-(2-Bromo-phenyl)-3-{6-[4-(3-diethylamino-propoxy)-phenylamino]-pyrimidin-4-yl}-urea]
			27 to 100%	67 to 100%	12 to 100%	COc1ccc(OC)c(NC(=O)Nc2cc(Nc3cccc(Cl)c3)ncn2)c1 [Example 132, 1-[6-(3-Chloro-phenylamino)-pyrimidin-4-yl]-3-(2,5-dimethoxy-phenyl)-urea]
			27 to 100%	67 to 100%	12 to 100%	COc1cc(NC(=O)Nc2cc(Nc3cccc(N4CCN(C)CC4)c3)ncn2)ccc1F [Example 33, 1-(4-Fluoro-3-methoxy-phenyl)-3-{6-[3-(4-methyl-piperazin-1-yl)-phenyl-amino]-pyrimidin-4-yl}-urea]
			27 to 100%	67 to 100%	12 to 100%	O=C(Nc1ccc(Cl)cc1)Nc1cc(Nc2cccc(Cl)c2)ncn1 [Example 138, 1-(4-Chloro-phenyl)-3-[6-(3-chloro-phenylamino)-pyrimidin-4-yl]-urea]
